These results are taken from patent US20130281397A1, “TREATMENT OF DISEASES BY EPIGENETIC REGULATION” (RVX Therapeutics Inc., priority 2012, published 2013).

For one data set, the target named is T1, Brd4 bromodomain 1 (Homo sapiens, UniProt O60885).
T1 construct: made in house; host or cells: E. coli BL21(DE3)
The data set is described as follows: Inhibition of binding of tetra-acetylated histone H4 and Brd4 bromodomain 1 by TR-FRET. The following applies: His-tagged bromodomain 200 nM, biotinylated tetra-acetylated histone H4 peptide 25-50 nM, 2 hours at room temperature. As to the method:
Proteins were cloned and overexpressed with a N-terminal 6×His tag, then purified by nickel affinity followed by size exclusion chromatography. Briefly, E. coli BL21(DE3) cells were transformed with a recombinant expression vector encoding N-terminally […] tagged bromodomains from Brd2, Brd3, or Brd4. Cell cultures were incubated at 37° C. with shaking to the appropriate density and induced overnight with IPTG. The supernatant of lysed cells was loaded onto Ni-IDA column for purification. Eluted protein was pooled, concentrated and further purified by size exclusion chromatography. Fractions representing monomeric protein were pooled, concentrated, aliquoted, and frozen at −80° C. for use in subsequent experiments.
For inhibition assays, serially diluted test compound was added to these reactions in a 0.2% final concentration of DMSO. Final buffer concentrations were 30 mM HEPES pH 7.4, 30 mM NaCl, 0.3 mM CHAPS, 20 mM phosphate pH 7.0, 320 mM KF, 0.08% BSA). […] The binding inhibitory activity was shown by a decrease in 665 nm fluorescence relative to 620 nm. IC50 values were determined from a dose response curve.

Consider `O=c1[nH]c(-c2ccc(O)cc2)cc2ccccc12` [Example 1, 3-(4-Hydroxyphenyl)-2H-isoquinolin-1-one], for which the melting point lay within 239 to 241 °C. Besides, the “FRET activity (<50 uM)” value on Brd4 bromodomain 1 was “Active”.

Compound `COc1cc(OC)c2c(=O)[nH]c(-c3ccc(O)cc3)cc2c1` [Example 3, 3-(4-hydroxyphenyl)-6,8-dimethoxyisoquinolin-1(2H)-one] returned a melting point of 245 to 247 °C. The “FRET activity (<50 uM)” value on Brd4 bromodomain 1 is “Active”.

In turn, `COc1cc(OC)c2c(=O)[nH]c(-c3cc(C)c(OCC(C)(C)O)c(C)c3)cc2c1` [Example 11, 3-(4-(2-hydroxy-2-methylpropoxy)-3,5-dimethylphenyl)-6,8-dimethoxyisoquinolin-1(2H)-one] yielded a melting point of 252 to 254 °C. Also, on Brd4 bromodomain 1, the “FRET activity (<50 uM)” value is “Active”.

The compound `COc1cc2c(c(OC)c1)S(=O)(=O)NC(c1cc(C)c(O)c(C)c1)=C2` [Example 12, 6,8-dimethoxy-3-(4-hydroxy-3,5-dimethylphenyl)-2H-1,2-benzothiazine-1,1-dioxide] displayed a melting point of 246.6 to 247.4 °C. For the same compound, the “FRET activity (<50 uM)” value on Brd4 bromodomain 1 was “Active”.

Take `COc1cc(OC)c2c(=O)[nH]c(-c3cc(C(C)(C)C)c(O)c(C(C)(C)C)c3)nc2c1` [Example 23, 2-(3,5-di-tert-butyl-4-hydroxyphenyl)-5,7-dimethoxyquinazolin-4(3H)-one]: the melting point lay within 229.7 to 230.5 °C. On Brd4 bromodomain 1, the “FRET activity (<50 uM)” value is given as “Inactive”.

`COc1cc(OC)cc(-c2nc3cc(OC)cc(OC)c3c(=O)[nH]2)c1` [Example 24, 2-(3,5-dimethoxyphenyl)-5,7-dimethoxyquinazolin-4(3H)-one]: the melting point was 270 to 272 °C. The “FRET activity (<50 uM)” value at Brd4 bromodomain 1 is recorded as “Inactive”.

`COc1ccc(-c2nc3cc(OC)cc(OC)c3c(=O)[nH]2)cc1` [Example 25, 5,7-dimethoxy-2-(4-methoxyphenyl)quinazolin-4(3H)-one] displayed a melting point of 276 to 277 °C. In addition, on Brd4 bromodomain 1, the “FRET activity (<50 uM)” value is “Inactive”.

Turning to `COc1cc(OC)c2c(=O)[nH]c(-c3ccc(O)c(OC)c3)nc2c1` [Example 26, 2-(4-hydroxy-3-methoxyphenyl)-5,7-dimethoxyquinazolin-4(3H)-one], the melting point was 294 to 296 °C. In addition, the “FRET activity (<50 uM)” value on Brd4 bromodomain 1 was “Active”.

For the compound `COc1cc(OC)c2c(=O)[nH]c(-c3ccc(O)c(Cl)c3)nc2c1` [Example 27, 2-(3-chloro-4-hydroxyphenyl)-5,7-dimethoxyquinazolin-4(3H)-one], the melting point fell in the range of 279 to 281 °C. In addition, the “FRET activity (<50 uM)” value on Brd4 bromodomain 1 is given as “Active”.

The compound `Cc1cc(-c2nc3ccccc3c(=O)[nH]2)cc(C)c1OCCO` [Example 30, 2-(4-(2-hydroxyethoxy)-3,5-dimethylphenyl)quinazolin-4(3H)-one] returned a melting point of 260 to 261 °C. Besides, the “FRET activity (<50 uM)” value at Brd4 bromodomain 1 was “Inactive”.

As to `O=c1[nH]c(-c2ccc3c(c2)OCCO3)nc2ccccc12` [Example 31, 2-(2,3-dihydrobenzo[b][1,4]dioxin-6-yl)quinazolin-4(3H)-one], the melting point is 267 to 268 °C (dec.). Besides, the “FRET activity (<50 uM)” value on Brd4 bromodomain 1 is “Inactive”.

`COc1cc(OC)c2c(=O)[nH]c(-c3ccc(N(C)C)c4ccccc34)nc2c1` [Example 32, 2-(4-(dimethylamino)naphthalen-1-yl)-5,7-dimethoxyquinazolin-4(3H)-one]: the melting point is 269 to 271 °C. On Brd4 bromodomain 1, the “FRET activity (<50 uM)” value was “Inactive”.

`COc1cc(OC)c2c(=O)[nH]c(-c3ccc(OCC(N)=O)cc3)nc2c1` [Example 33, 2-(4-(5,7-dimethoxy-4-oxo-3,4-dihydroquinazolin-2-yl)phenoxy)acetamide] came in with a melting point of 309 to 311 °C. The “FRET activity (<50 uM)” value on Brd4 bromodomain 1 is “Active”.

As to `O=C(O)COc1ccc(-c2nc3ccccc3c(=O)[nH]2)cc1` [Example 34, 2-(4-(4-oxo-3,4-dihydroquinazolin-2-yl)phenoxy)acetic acid], the melting point fell in the range of 285 to 287 °C. At Brd4 bromodomain 1, the “FRET activity (<50 uM)” value is “Inactive”.

The compound `CN(C)c1ccc(-c2nc3ccccc3c(=O)[nH]2)c2ccccc12` [Example 35, 2-(4-(dimethylamino)naphthalen-1-yl)quinazolin-4(3H)-one] displayed a melting point of 224 to 226 °C. Moreover, the “FRET activity (<50 uM)” value on Brd4 bromodomain 1 is “Inactive”.

The compound `NC(=O)COc1ccc(-c2nc3ccccc3c(=O)[nH]2)cc1` [Example 36, 2-(4-(4-oxo-3,4-dihydroquinazolin-2-yl)phenoxy)acetamide] showed a melting point of 277.5 to 278.5 °C. On Brd4 bromodomain 1, the “FRET activity (<50 uM)” value is listed as “Inactive”.

`COc1cc(OC)c2c(=O)[nH]c(-c3ccc4c(c3)OCCO4)nc2c1` [Example 37, 2-(2,3-dihydrobenzo[b][1,4]dioxin-6-yl)-5,7-dimethoxyquinazolin-4(3H)-one] registered a melting point of 307.5 to 309.6 °C. Also, the “FRET activity (<50 uM)” value on Brd4 bromodomain 1 is given as “Active”.

In the case of `COc1cc2nc(-c3ccc(N(C)C)c4ccccc34)[nH]c(=O)c2cc1OC` [Example 39], the melting point is 235.5 to 236.5 °C.

Compound `O=c1[nH]c(-c2ccc(N(CCO)CCO)cc2)nc2ccccc12` [Example 40, 2-(4-(bis(2-hydroxyethyl)amino)phenyl)quinazolin-4(3H)-one] yielded a melting point of 228 to 230 °C. The “FRET activity (<50 uM)” value at Brd4 bromodomain 1 is given as “Inactive”.

The compound `COc1cc(OC)c2c(=O)[nH]c(-c3ccc(N(CCO)CCO)cc3)nc2c1` [Example 41, 2-(4-(bis(2-hydroxyethyl)amino)phenyl)-5,7-dimethoxyquinazolin-4(3H)-one] yielded a melting point of 249 to 251 °C. Besides, the “FRET activity (<50 uM)” value at Brd4 bromodomain 1 was “Active”.

Turning to `COc1cc2nc(-c3ccc(N(CCO)CCO)cc3)[nH]c(=O)c2cc1OC` [Example 42, 2-(4-(bis(2-hydroxyethyl)amino)phenyl)-6,7-dimethoxyquinazolin-4(3H)-one], the melting point lay in the range of 268 to 270 °C.

For the compound `COc1cc2nc(-c3ccc4c(c3)OCCO4)[nH]c(=O)c2cc1OC` [Example 43, 2-(2,3-dihydrobenzo[b][1,4]dioxin-6-yl)-6,7-dimethoxyquinazolin-4(3H)-one], the melting point lay within 316.4 to 318.2 °C. On Brd4 bromodomain 1, the “FRET activity (<50 uM)” value is recorded as “Inactive”.

Turning to `COc1cc(OC)c2c(=O)[nH]c(-c3cc(C)c(OCCN4CCOCC4)c(C)c3)cc2n1` [Example 45, 7-(3,5-dimethyl-4-(2-morpholinoethoxy)phenyl)-2,4-dimethoxy-1,6-naphthyridin-5(6H)-one], the melting point was in the range of 212.5 to 212.9 °C. For the same compound, the “FRET activity (<50 uM)” value at Brd4 bromodomain 1 is given as “Active”.

As for `COc1cc2nc(-c3cc(C)c(O)c(C)c3)[nH]c(=O)c2cc1OC` [Example 47, 2-(4-hydroxy-3,5-dimethylphenyl)-6,7-dimethoxyquinazolin-4(3H)-one], the melting point is more than 300 °C. Moreover, the “FRET activity (<50 uM)” value at Brd4 bromodomain 1 was “Active”.

As to `COc1cc(OC)c2c(=O)[nH]c(-c3ccc(CCC(=O)O)cc3)nc2c1` [Example 48, 3-(4-(5,7-dimethoxy-4-oxo-3,4-dihydroquinazolin-2-yl)phenyl)propanoic acid], the melting point was in the range of 250.6 to 251.1 °C. Further, on Brd4 bromodomain 1, the “FRET activity (<50 uM)” value is given as “Active”.

For the compound `CC(=O)Nc1ccc2nc(-c3cc(C)c(O)c(C)c3)[nH]c(=O)c2c1` [Example 49, N-(2-(4-hydroxy-3,5-dimethylphenyl)-4-oxo-3,4-dihydroquinazolin-6-yl)acetamide], the melting point is 336.5 °C (dec.). In addition, the “FRET activity (<50 uM)” value on Brd4 bromodomain 1 is “Inactive”.

Take `COc1cc2nc(-c3cc(C)c(OCC(N)=O)c(C)c3)[nH]c(=O)c2cc1OC` [Example 50, 2-(4-(6,7-dimethoxy-4-oxo-3,4-dihydroquinazolin-2-yl)-2,6-dimethylphenoxy)acetamide]: the melting point is 354 to 356 °C. For the same compound, the “FRET activity (<50 uM)” value at Brd4 bromodomain 1 is given as “Inactive”.

As to `COc1cc(OC)c2c(=O)[nH]c(-c3ccc(OCCO)c(Cl)c3)nc2c1` [Example 51, 2-(3-chloro-4-(2-hydroxyethoxy)phenyl)-5,7-dimethoxyquinazolin-4(3H)-one], the melting point is 287 to 288 °C (dec.). Further, the “FRET activity (<50 uM)” value on Brd4 bromodomain 1 is recorded as “Inactive”.

In turn, `COc1cc(OC)c2c(=O)[nH]c(-c3ccc(OCCO)c(OC)c3)nc2c1` [Example 52, 2-(4-(2-hydroxyethoxy)-3-methoxyphenyl)-5,7-dimethoxyquinazolin-4(3H)-one] registered a melting point of 246 to 248 °C.

`COc1cc2nc(-c3cc(C)c(OCCO)c(C)c3)[nH]c(=O)c2cc1OC` [Example 53, 2-(4-(2-hydroxyethoxy)-3,5-dimethylphenyl)-6,7-dimethoxyquinazolin-4(3H)-one] had a melting point of more than 300 °C. Also, at Brd4 bromodomain 1, the “FRET activity (<50 uM)” value is recorded as “Inactive”.

The compound `COc1cc(OC)c2c(=O)[nH]c(-c3cc(C)c(NC(=O)CO)c(C)c3)nc2c1` [Example 55, N-(4-(5,7-dimethoxy-4-oxo-3,4-dihydroquinazolin-2-yl)-2,6-dimethylphenyl)-2-hydroxyacetamide] yielded a melting point of 190 to 192 °C. Further, on Brd4 bromodomain 1, the “FRET activity (<50 uM)” value is on record as “Active”.

`COc1cc(OC)c2c(=O)[nH]c(-c3cc(C)c(OCCO)c(C)c3)cc2n1` [Example 56, 7-(4-(2-hydroxyethoxy)-3,5-dimethylphenyl)-2,4-dimethoxy-1,6-naphthyridin-5(6H)-one] displayed a melting point of 224.9 to 225.4 °C.

Usually melting point stands for the temperature, or range, at which the solid turns liquid.
